Measurements reported in ChEMBL document CHEMBL1287791, “In silico identification and biochemical evaluation of novel inhibitors of NRH:quinone oxidoreductase 2 (NQO2)” (Bioorg Med Chem Lett, 2010).
Activity calls are given as the source filed them. No rule for the calls is given here.

Tests used:
[1] = target: T1, Ribosyldihydronicotinamide dehydrogenase [quinone] (Homo sapiens, UniProt P16083); assay: Inhibition of human recombinant NQO2
T1 sequence (P16083 whole entry): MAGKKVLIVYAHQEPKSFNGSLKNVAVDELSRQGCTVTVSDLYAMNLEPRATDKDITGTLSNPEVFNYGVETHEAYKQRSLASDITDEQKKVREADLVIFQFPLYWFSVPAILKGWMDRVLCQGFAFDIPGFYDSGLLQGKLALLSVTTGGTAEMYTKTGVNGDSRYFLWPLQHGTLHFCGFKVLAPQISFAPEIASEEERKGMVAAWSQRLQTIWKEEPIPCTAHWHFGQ

[2] = target: T2, Ribosyldihydronicotinamide dehydrogenase [quinone] (Homo sapiens) (UniProt P16083); assay: Inhibition of human recombinant NQO2 at 100 uM
T2 sequence (whole entry): T1 sequence (P16083 whole entry)

[3] = target: NAD(P)H dehydrogenase [quinone] 1 (Homo sapiens, UniProt P15559); assay: Inhibition of human recombinant NQO1
NAD(P)H dehydrogenase [quinone] 1, sequence (P15559 whole entry): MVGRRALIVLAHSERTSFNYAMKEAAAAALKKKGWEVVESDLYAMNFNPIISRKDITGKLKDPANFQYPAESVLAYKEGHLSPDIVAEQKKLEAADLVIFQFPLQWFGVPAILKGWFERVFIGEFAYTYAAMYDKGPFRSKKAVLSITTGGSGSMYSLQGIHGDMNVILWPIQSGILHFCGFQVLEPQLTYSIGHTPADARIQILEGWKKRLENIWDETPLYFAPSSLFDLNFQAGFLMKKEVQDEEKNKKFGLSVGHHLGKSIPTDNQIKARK

SMILES	IC50 [1] [µM]	inhibition [2]	IC50 [3] [µM]
COc1cc2cc(-c3cc(OC)c(OC)c(OC)c3)c3c(c2cc1OC)CNC3=O	2	inactive	–
CCN(CC)Cc1cc(Nc2c3ccccc3nc3c4ccccc4n(C)c23)ccc1O	3.5	inactive	–
N=C(N)c1ccc(/N=N/c2cc(/N=N/c3ccccc3)ccc2O)cc1	1.8	inactive	–
Cn1c2ccccc2c2c3ccc[n+](C)c3ccc21	5.5	inactive	–
Cc1cc(NCCCCCCNc2cc(C)nc3ccc(N)cc23)c2cc(N)ccc2n1	1.9	inactive	–
CCn1c2ccccc2c2cc(N)c(/N=N/c3ccc([N+](=O)[O-])cc3)cc21	5	inactive	–
COc1ccc(/C(Cl)=C(/C=O)c2cc(OC)c(OC)c(OC)c2)cc1OC	22	inactive	–
Cn1cc/c(=N\N=c2/ccn(C)c3ccccc23)c2ccccc21	6.2	inactive	–
CN1CC(c2ccccc2)=CC2=C1C=CC(=N)/C2=N\N	2	inactive	–
N=C(N)c1ccc(/N=N/c2cc(/C=C/c3ccccc3)ccc2O)cc1	1.4	inactive	–
Oc1cc(O)cc(-c2c(O)cc(O)cc2O)c1	–	–	10
C(=C\c1c[nH]c2ccccc12)/c1nccc2ccccc12	1.8	inactive	–
COc1cc(/C=C/c2ccc(OC)c(O)c2)cc(OC)c1	15	–	–
CCN(CC)CCNC(=O)c1c2c(nc3ccccc13)CCCC2	–	inactive	–
c1ccc(-c2sc(-c3ccccc3)c3c2C2CCC3C2)cc1	–	inactive	–
C(=N\NC1=NCCN1)/c1c2ccccc2c(/C=N/NC2=NCCN2)c2ccccc12	–	inactive	–
c1ccc(/N=C2\SC(=NNc3ccccc3)S\C2=N/c2ccccc2)cc1	–	inactive	–
CCN1/C(=C/c2ccc3ccccc3[n+]2CC)C=Cc2ccccc21	2.7	inactive	–

SMILES	IC50 [1] [µM]	inhibition [2]	IC50 [3] [µM]
C#CCN(Cc1ccc2nc(-c3ccccc3)c(Cl)nc2c1)c1cc(OC)c(OC)c(OC)c1	–	inactive	–
Oc1cc(O)c2ccccc2c1	3.3	inactive	–
CCN(CC)CCCC(C)Nc1ccnc2cc(Cl)ccc12 (stereo not drawn) [CHLOROQUINE]	1.5	inactive	–
Cc1ccc(C(=N)c2ccccc2Cc2cccc3ccccc23)c2ccccc12	–	inactive	–
N=C(N)c1ccc(/N=N/c2c(O)c(C(=O)Nc3ccccc3)cc3ccccc23)cc1	6	inactive	–
Oc1ccc(-c2ccc(O)cc2O)c(O)c1	–	inactive	–
COc1cc2cc(-c3cc(OC)c(OC)c(OC)c3)c3c(c2cc1OC)CNC3	2.7	inactive	–
CN(C)c1ccc(NN=C2SC(=N\c3ccccc3)/C(=N/c3ccccc3)S2)cc1	–	inactive	–
Cc1cc2c(ccc3c2ccc[n+]3C)[nH]1	2.1	inactive	–
Oc1ccc2ccccc2c1/N=N/c1ccc(F)cc1	–	inactive	–
COc1cc(NC(C)CCCN)c2ncccc2c1 (stereo not drawn) [PRIMAQUINE]	7.5	inactive	–
COc1ccc(/C(C#N)=C\c2cc(OC)c(OC)c(OC)c2)cc1	20	–	40
Oc1ccccc1C(=NNc1ccccc1)c1ccccc1O	3.9	–	3
CN(C)c1ccc(/C=c2\c3cc([N+](=O)[O-])ccc3n3c2cc(-c2ccccc2)[n+]3C)cc1	5	inactive	–
O=[N+]([O-])c1ccc(-n2nc3ccc4c(no[n+]4[O-])c3n2)cc1	–	inactive	–
N/N=c1\c2ccccc2c2ccc3c4ccccc4/c(=N\N)c3c12	–	inactive	–
CN(CCc1ccccn1)c1ccc2c(c1)Cc1ccccc1-2	–	inactive	–

The next lines start with the values.

IC50 [1] [µM]	inhibition [2]	IC50 [3] [µM]	SMILES
–	inactive	–	O=C(C(=O)c1cc(-c2ccccc2)nc2ccc3ccccc3c12)c1ccccc1
3.2	–	–	Cc1ccc(/C=C/C(=O)c2sc(-n3nc(-c4ccccc4)cc3-c3ccccc3)nc2C)cc1
5.3	–	–	Cc1nc(-n2nc(-c3ccccc3)cc2-c2ccccc2)sc1C(=O)/C=C/c1ccc(Cl)cc1
–	inactive	–	C(=N\c1ccc(-c2cc(-c3ccccc3)nc3ccc4ccccc4c23)cc1)/c1ccccc1
–	inactive	–	Cc1ccc2c(c1)-c1c3c(nn1-c1ccccc1)-c1ccccc1SC3O2 (stereo not drawn)
–	inactive	–	Cc1ccc(-c2cn3c(nc4ccccc43)c(-c3ccccc3)n2)cc1
9.6	inactive	–	O=[N+]([O-])c1ccc(/C=C/c2cc(-c3ccccc3)nc3ccc4ccccc4c23)cc1
–	inactive	–	Clc1ccc(-c2cn3c(nc4ccccc43)c(-c3ccccc3)n2)cc1
–	inactive	–	Clc1ccc2nc3c(c(-c4ccccc4)nn3-c3ccccc3)c(-c3ccccc3)c2c1
6	–	–	Cc1nc(-n2nc(-c3ccccc3)cc2-c2ccccc2)sc1C(=O)/C=C/c1ccc([N+](=O)[O-])cc1
1.7	inactive	–	CN(C)c1ccc(/C=c2\c3ccccc3n3c2cc(-c2ccccc2)[n+]3C)cc1
6.5	–	–	Cc1nc(-n2nc(-c3ccccc3)cc2-c2ccccc2)sc1C(=O)/C=C/c1cccc([N+](=O)[O-])c1
2.9	inactive	–	c1ccc2c3ccn4ccc5c6ccccc6[nH]c5c4c-3nc2c1
–	inactive	–	O=[N+]([O-])c1ccc(N/N=C/c2c(Cl)n(-c3ccccc3)c3ccccc23)c([N+](=O)[O-])c1
–	inactive	–	C1=c2ccccc2=C2C(=C(c3ccccc3)C(c3ccccc3)=NN2c2ccccc2)S1
–	inactive	–	Cc1ccc(-n2cc(-c3ccc(Cl)cc3)c3c2N=CN2N=C(c4cccs4)NC32)cc1 (stereo not drawn)
–	–	0.39	Fc1ccccc1C1CC(c2ccc3ccccc3c2)=Nc2ccccc2S1 (stereo not drawn)
4.9	–	–	Cc1nc(-n2nc(-c3ccccc3)cc2-c2ccccc2)sc1C(=O)/C=C/c1ccc(Cl)c(Cl)c1
–	inactive	–	C/C(=N\NC(=O)c1ccncc1)c1sc(-n2nc(-c3ccccc3)cc2-c2ccccc2)nc1C
3.8	–	–	CC(/C=C/C(=O)c1sc(-n2nc(-c3ccccc3)cc2-c2ccccc2)nc1C)=C\c1ccccc1
–	inactive	–	Clc1ccc(-c2nc3ccc4ccccc4c3c3c2CCCC3)cc1
–	inactive	–	O=C(NCCc1ccccc1)c1ccc2ccccc2n1
5.8	–	–	Cc1nc(-n2nc(-c3ccccc3)cc2-c2ccccc2)sc1C(=O)/C=C/c1ccccc1
2.1	inactive	–	Cc1c2ccnc(-c3ccccc3)c2cc2c1[nH]c1ccccc12
9.7	inactive	–	C(=C\Nc1ccc(-c2ccccc2)cc1)/C=N/c1ccc(-c2ccccc2)cc1
6	–	1.1	c1ccc2sc(-c3c4ccccc4cc4ccc5ccccc5c34)cc2c1
5.1	inactive	–	c1ccc2c(-c3ccsc3)c3c(ccc4ccccc43)cc2c1
–	inactive	–	c1ccc2cc(-c3cc(-c4cc(-c5ccc6ccccc6c5)on4)no3)ccc2c1
–	inactive	–	CC(=O)CCNc1ccc(-c2cc(-c3ccc(N(C)C)cc3)nc3ccc4ccccc4c23)cc1
–	inactive	–	Fc1ccc2c(c1)SC1Oc3ccccc3-c3c1c-2nn3-c1ccccc1 (stereo not drawn)
